Source: PubChem BioAssay AID248 (DTP/NCI, 2004)
Toxic doses and inconclusive results are not listed. Cut-off read from the data, not from the text of the source: active = T/C of 150% or more; inactive = T/C below 125%.

System: L1210 leukemia ip in BDF1 mice, survival T/C
Assay: NCI In Vivo Anticancer Drug Screen. Data for tumor model L1210 Leukemia (intraperitoneal) in B6D2F1 (BDF1) mice
Conditions: endpoint: mean survival time, higher = longer survival
Outline: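 Transplantable tumor model; survival measured in treated vs vehicle control mice. Value = treated/control.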

[1] = dose: 100.0 mg/kg/injection, schedule: Q01DX009 (ip), vehicle: Klucel (hydroxypropylcellulose) (HPC)
[2] = dose: 200.0 mg/kg/injection, schedule: Q01DX009 (ip), vehicle: Klucel (hydroxypropylcellulose) (HPC)
[3] = dose: 400.0 mg/kg/injection, schedule: Q01DX009 (ip), vehicle: Klucel (hydroxypropylcellulose) (HPC)
[4] = dose: 100.0 mg/kg/injection, schedule: Q01DX001 (ip), vehicle: other
[5] = dose: 200.0 mg/kg/injection, schedule: Q01DX001 (ip), vehicle: other
[6] = dose: 400.0 mg/kg/injection, schedule: Q01DX001 (ip), vehicle: other
[7] = dose: 100.0 mg/kg/injection, schedule: Q04DX003 (ip), vehicle: other
[8] = dose: 200.0 mg/kg/injection, schedule: Q04DX003 (ip), vehicle: other
[9] = dose: 400.0 mg/kg/injection, schedule: Q04DX003 (ip), vehicle: other
[10] = dose: 100.0 mg/kg/injection, schedule: Q01DX009 (ip), vehicle: saline with Tween-80
[11] = dose: 200.0 mg/kg/injection, schedule: Q01DX009 (ip), vehicle: saline with Tween-80
[12] = dose: 400.0 mg/kg/injection, schedule: Q01DX009 (ip), vehicle: saline with Tween-80
[13] = dose: 50.0 mg/kg/injection, schedule: Q04DX003 (ip), vehicle: saline
[14] = dose: 100.0 mg/kg/injection, schedule: Q01DX001 (ip), vehicle: carboxymethylcellulose (CMC)
[15] = dose: 400.0 mg/kg/injection, schedule: Q01DX001 (ip), vehicle: carboxymethylcellulose (CMC)

Measured: T/C

CSc1ccc(NC(=O)Nc2ccc(Cl)cc2Cl)cc1
inactive: [1] 93 % of control | [2] 88 % of control | [3] 88 % of control

COc1ccc2nccc(C(=O)CCC3CCN(C(=O)c4ccc([N+](=O)[O-])cc4)CC3C(CBr)CCBr)c2c1 (centres undefined)
inactive: [4] 104 % of control | [5] 88 % of control | [6] 111 % of control

CCC1(CC)CC1(Cl)Cl
inactive: dose: 75.0 mg/kg/injection, schedule: Q01DX001 (ip), vehicle: acetone 108 % of control | dose: 150.0 mg/kg/injection, schedule: Q01DX001 (ip), vehicle: acetone 101 % of control

CC(=O)O[C@]1(C(C)=O)CC[C@H]2[C@@H]3C[C@H](F)C4=CC(=O)CC[C@]4(C)[C@H]3CC[C@@]21C
inactive: [1] 98 % of control | [7] 93 % of control | [2] 97 % of control | [8] 98 % of control | [3] 101 % of control | [9] 100 % of control

O=N[O-].[Co].[N-]=C=S.[NH2-].[NH2-].[NH2-].[NH2-]
inactive: dose: 6.25 mg/kg/injection, schedule: Q01DX009 (ip), vehicle: saline 106 % of control | dose: 12.5 mg/kg/injection, schedule: Q01DX009 (ip), vehicle: saline 114 % of control | dose: 12.5 mg/kg/injection, schedule: Q04DX003 (ip), vehicle: saline with Tween-80 96 % of control | dose: 13.2 mg/kg/injection, schedule: Q01DX009 (ip), vehicle: saline 104 % of control | dose: 16.0 mg/kg/injection, schedule: Q01DX009 (ip), vehicle: saline 104 % of control | dose: 20.0 mg/kg/injection, schedule: Q01DX009 (ip), vehicle: saline 113 % of control | dose: 25.0 mg/kg/injection, schedule: Q01DX009 (ip), vehicle: saline 104 % of control | dose: 25.0 mg/kg/injection, schedule: Q04DX003 (ip), vehicle: saline with Tween-80 96 % of control | dose: 30.0 mg/kg/injection, schedule: Q01DX009 (ip), vehicle: saline 113 % of control | dose: 35.0 mg/kg/injection, schedule: Q01DX009 (ip), vehicle: saline 104 % of control | dose: 50.0 mg/kg/injection, schedule: Q01DX009 (ip), vehicle: saline 116 % of control | dose: 50.0 mg/kg/injection, schedule: Q04DX003 (ip), vehicle: saline with Tween-80 88 % of control | dose: 100.0 mg/kg/injection, schedule: Q04DX003 (ip), vehicle: saline with Tween-80 105 % of control | dose: 200.0 mg/kg/injection, schedule: Q04DX003 (ip), vehicle: saline with Tween-80 90 % of control

O=S(=O)(O)O.[NH-]CC(N)=O.[NH-]CC(N)=O.[Ni+2]
inactive: dose: 6.25 mg/kg/injection, schedule: Q01DX009 (ip), vehicle: water 109 % of control | dose: 12.5 mg/kg/injection, schedule: Q01DX009 (ip), vehicle: water 97 % of control | dose: 25.0 mg/kg/injection, schedule: Q01DX009 (ip), vehicle: water 90 % of control

Cc1cccc(C)c1NC(=O)NS(=O)(=O)c1ccccc1
inactive: dose: 50.0 mg/kg/injection, schedule: Q01DX009 (ip), vehicle: saline with Tween-80 90 % of control | [10] 100 % of control | dose: 100.0 mg/kg/injection, schedule: Q04DX003 (ip), vehicle: acetone 95 % of control | [11] 95 % of control | dose: 200.0 mg/kg/injection, schedule: Q04DX003 (ip), vehicle: acetone 103 % of control

c1cc2c3c(c1)-c1nc4ccccc4cc1CN3CCC2
inactive: [10] 94 % of control | [11] 105 % of control | [12] 96 % of control

COc1ccc(C(=O)c2cc(OC)c(OC)c(OC)c2)cc1OC
inactive: [13] 98 % of control | [14] 102 % of control | dose: 100.0 mg/kg/injection, schedule: Q01DX009 (ip), vehicle: saline 108 % of control | dose: 100.0 mg/kg/injection, schedule: Q04DX003 (ip), vehicle: saline 100 % of control | dose: 200.0 mg/kg/injection, schedule: Q01DX001 (ip), vehicle: carboxymethylcellulose (CMC) 103 % of control | dose: 200.0 mg/kg/injection, schedule: Q01DX009 (ip), vehicle: saline 112 % of control | dose: 200.0 mg/kg/injection, schedule: Q04DX003 (ip), vehicle: saline 104 % of control | [15] 103 % of control | dose: 400.0 mg/kg/injection, schedule: Q01DX009 (ip), vehicle: saline 101 % of control | dose: 400.0 mg/kg/injection, schedule: Q04DX003 (ip), vehicle: saline 96 % of control

Cc1ccc(S(=O)(=O)OC2CCCC2OS(=O)(=O)c2ccc(C)cc2)cc1 (centres undefined)
inactive: [4] 96 % of control | [5] 95 % of control | [6] 91 % of control

NOCc1c(F)c(F)c(F)c(F)c1F
inactive: dose: 100.0 mg/kg/injection, schedule: Q04DX003 (ip), vehicle: saline sonified 93 % of control | dose: 200.0 mg/kg/injection, schedule: Q04DX003 (ip), vehicle: saline sonified 104 % of control

C=CCN(CC=C)c1ncnc(N(C)C)n1
inactive: dose: 25.6 mg/kg/injection, schedule: Q04DX002 (ip), vehicle: saline with Tween-80 93 % of control | dose: 64.0 mg/kg/injection, schedule: Q04DX002 (ip), vehicle: saline with Tween-80 101 % of control | dose: 160.0 mg/kg/injection, schedule: Q04DX002 (ip), vehicle: saline with Tween-80 101 % of control | dose: 400.0 mg/kg/injection, schedule: Q04DX002 (ip), vehicle: saline with Tween-80 97 % of control

c1ccc(C2C(c3ccccc3)C(c3ccccc3)C2c2ccccc2)cc1 (centres undefined)
inactive: dose: 75.0 mg/kg/injection, schedule: Q01DX001 (ip), vehicle: carboxymethylcellulose (CMC) 91 % of control | dose: 150.0 mg/kg/injection, schedule: Q01DX001 (ip), vehicle: carboxymethylcellulose (CMC) 94 % of control | dose: 300.0 mg/kg/injection, schedule: Q01DX001 (ip), vehicle: carboxymethylcellulose (CMC) 88 % of control

Cc1nnnn1C1CCCCC1I (centres undefined)
inactive: dose: 10.0 mg/kg/injection, schedule: Q01DX001 (ip), vehicle: other 102 % of control | dose: 20.0 mg/kg/injection, schedule: Q01DX001 (ip), vehicle: other 88 % of control

COc1ccc(OC)c(NC(=S)N/N=C/c2cccc3ccccc23)c1
inactive: [10] 100 % of control | [11] 95 % of control | [12] 100 % of control

NCC(=O)CCS(=O)(=O)c1ccc(Cl)cc1
inactive: dose: 12.5 mg/kg/injection, schedule: Q04DX003 (ip), vehicle: saline 96 % of control | dose: 25.0 mg/kg/injection, schedule: Q04DX003 (ip), vehicle: saline 91 % of control | [13] 93 % of control

Oc1c(Br)cc(Br)cc1/C=N/N1CCN(/N=C/c2cc(Br)cc(Br)c2O)CC1
inactive: dose: 100.0 mg/kg/injection, schedule: Q01DX001 (ip), vehicle: saline 87 % of control | dose: 400.0 mg/kg/injection, schedule: Q01DX001 (ip), vehicle: saline 90 % of control

CC(=O)[O][Sn]([CH2]c1ccccc1)([CH2]c1ccccc1)[O]C(C)=O
inactive: dose: 100.0 mg/kg/injection, schedule: Q01DX009 (ip), vehicle: other 109 % of control | [7] 92 % of control | dose: 200.0 mg/kg/injection, schedule: Q01DX009 (ip), vehicle: other 98 % of control | [8] 97 % of control | dose: 400.0 mg/kg/injection, schedule: Q01DX009 (ip), vehicle: other 95 % of control | [9] 95 % of control

O=[N+]([O-])c1ccc(-c2cccc3ccccc23)c([N+](=O)[O-])c1
inactive: [14] 96 % of control | [15] 91 % of control
